Among the data in patent US6225478A, “Iridoid derivatives and neovascularization inhibitors containing the same as active ingredient” (Tsumura & Co., priority 1999, dated 2001) are inhibition values, retold here.

Test [1] concerns human umbilical-vein endothelial cells (HUVEC). Kind of test: Tube Formation Assay (TFA) Test, HUVEC in collagen gel. The following applies: Homo sapiens, HUVEC, Tables 75-83; 0.32 mM sample solution; method as for Compounds 1 through 60; read-out: TFA Inhibition rate (%). The format is cell-based. The gist of the method:
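HUVEC (7th subculture, 1×10^5 cells/ml) attached to collagen gel for 2 h at 37 °C, given sample and overlaid with collagen, then cultured 20 h at 37 °C, 5% CO2 in M-199 with 20% FCS, 30 ng/ml b-FGF and 0.1 μM PMA. Tube length measured by image analysis; % inhibition relative to positive and negative controls.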

The next test has as its system HUFEC. Kind of test: Cell Migration Assay (CMA) Test, inhibitory rate with control (-) correction. Type of test: cell-based, human. The following applies: Homo sapiens, 24 h, 125 μl of 0.32 mM sample solution in 4.0 ml medium, 80% or more = remarkable. The gist of the method: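 Confluent HUFEC monolayers were scratch-wounded, then cultured 24 h at 37 °C, 5% CO2 in M199 (2+) medium with compound added as 125 μl of a 0.32 mM solution (3.2% DMSO) per 4 ml. Giemsa-stained cells migrating into 1 mm×1 mm blocks counted; inhibition % calculated relative to control (+) and control (−) wells.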

Regarding `CNC(=O)O[C@@H]1OC=C(C(=O)OC)[C@H]2CC=C(CO)C12` (stereo in doubt) [I-315, (1S,4aS,7aR)-7-(hydroxy-methyl)-1-(methylcarbamoyloxy)-1,4a,5,7a-tetrahydrocyclopenta [c] pyrane-4-carboxylic acid methylester], the inhibition (usually the change of the read-out against control, counted positive when it falls) at 320 µM (stock) in test [1] was found to be 8.6%; in the test on HUFEC, 36.4%.

`COC(=O)C1=CO[C@@H](OC(=O)N(C)CCN(C)C)[C@@H]2C(C)=CC[C@H]12` [I-86]: the inhibition at 320 µM (stock) in test [1] was 5.2%; in the test on HUFEC, 9.9%.

For the molecule `COC(=O)C1=CO[C@@H](OC(=O)NCc2ccc(Br)cc2)[C@@H]2C(C)=CC[C@H]12` [I-143], the inhibition at 320 µM (stock) in test [1] was 8.1%; with HUFEC, 5.9%.

For the molecule `COC(=O)C1=CO[C@@H](OC(=O)N2CCSCC2)[C@H]2[C@@H]1CC[C@@H]2C` [I-219], the inhibition at 320 µM (stock) in test [1] worked out at 30.6%; with HUFEC, 6.3%.

`COC(=O)C1=CO[C@@H](OC(=O)N(C)C)[C@H]2[C@@H]1CC[C@@H]2C` [I-239]: the inhibition at 320 µM (stock) in test [1] was 5.7%; in the test with HUFEC, 7.8%.

As for `COC(=O)C1=CO[C@@H](OC(=O)NCCc2cccc(F)c2)[C@H]2[C@@H]1CC[C@@H]2C` [I-205], the inhibition at 320 µM (stock) was found to be 2% in test [1] and 8.7% in the test with HUFEC.

`COC(=O)C1=CO[C@@H](OC(=O)NC2CC2)[C@@H]2C(C)=CC[C@H]12` [I-113]: the inhibition at 320 µM (stock) was 7.9% in test [1] and 34.4% in the test with HUFEC.

As to `COC(=O)C1=CO[C@@H](OC(N)=O)[C@H]2[C@@H]1CC[C@@H]2C` [I-179], the inhibition at 320 µM (stock) in test [1] was 5.2%; in the test on HUFEC it was 81.3%.

Consider `CCOC(=O)CNC(=O)C1=CO[C@@H](OC(=O)NC)[C@H]2[C@@H]1C[C@@H]1O[C@]21C` [I-65], for which the inhibition at 320 µM (stock) in test [1] was determined as 32.4%; in the test on HUFEC, 73.4%.

Take `COC(=O)C1=CO[C@@H](OC(=O)NCC#N)[C@H]2[C@@H]1CC[C@@H]2C` [I-176]: the inhibition at 320 µM (stock) came out at 2.2% in test [1] and 11.7% in the test on HUFEC.

With `COC(=O)C1=CO[C@@H](OC(=O)N2CC=CCC2)[C@H]2[C@@H]1CC[C@@H]2C` [I-194], the inhibition at 320 µM (stock) was found to be 3% in test [1] and 5.5% with HUFEC.

On to `CNC(=O)O[C@@H]1OC=C(C(N)=O)[C@H]2C[C@@H]3O[C@]3(C)[C@@H]12` [I-61], for which the inhibition at 320 µM (stock) in test [1] is 18.9%; in the test on HUFEC it was 82.1%.

In the case of `COC(=O)C1=CO[C@@H](OC(=O)NCC(OC)OC)[C@@H]2C(C)=CC[C@H]12` [I-96], the inhibition at 320 µM (stock) in test [1] stood at 19.7%; with HUFEC, 5.9%.

Regarding `COC(=O)C1=CO[C@@H](OC(=O)NC2CCN(Cc3ccccc3)CC2)[C@@H]2C(C)=CC[C@H]12` [I-89], the inhibition at 320 µM (stock) in test [1] came to 31.3%; in the test with HUFEC it was 9.9%.

Take `COC(=O)C1=CO[C@@H](OC(=O)NCCc2ccccn2)[C@H]2[C@@H]1CC[C@@H]2C` [I-182]: the inhibition at 320 µM (stock) stood at 9.6% in test [1] and 3.9% in the test on HUFEC.

As for `COC(=O)C1=CO[C@@H](OC(=O)NC2CCN(Cc3ccccc3)CC2)[C@H]2[C@@H]1CC[C@@H]2C` [I-192], the inhibition at 320 µM (stock) in test [1] was determined as 4.5%; with HUFEC, 7.8%.

`COC(=O)C1=CO[C@@H](OC(=O)Nc2ccc(Cl)cc2C(F)(F)F)[C@H]2[C@@H]1CC[C@@H]2C` [I-265]: the inhibition at 320 µM (stock) came out at 3.3% in test [1] and 6.3% in the test with HUFEC.

For the molecule `COC(=O)C1=CO[C@@H](OC(=O)N(C)CCN(C)C)[C@H]2[C@@H]1CC[C@@H]2C` [I-189], the values for the inhibition at 320 µM (stock) (in test [1]; in the test with HUFEC) were 4.7% and 8.5%, respectively.

Regarding `COC(=O)C1=CO[C@@H](OC(=O)N(C)CCc2ccc(OC)c(OC)c2)[C@H]2[C@@H]1CC[C@@H]2C` [I-227], the figures for the inhibition at 320 µM (stock) (in test [1]; with HUFEC) were 7.4% and 17.2%, respectively.

As for `C[C@]12O[C@H]1C[C@@H]1C(C(=O)N3CCN(CCO)CC3)=CO[C@@H](OC(=O)NCCCl)[C@@H]12` [I-68], the inhibition at 320 µM (stock) was determined as 9.2% in test [1] and 65.6% with HUFEC.

Consider `COC(=O)C1=CO[C@@H](OC(=O)Nc2cccc(C#N)c2)[C@@H]2C(C)=CC[C@H]12` [I-166], for which the inhibition at 320 µM (stock) is 9.1% in test [1] and 8.7% in the test with HUFEC.

As for `COC(=O)C1=CO[C@@H](OC(=O)NCc2ccncc2)[C@H]2[C@@H]1CC[C@@H]2C` [I-221], the inhibition at 320 µM (stock) came out at 24.5% in test [1] and 15.6% with HUFEC.

Turning to `COC(=O)C1=CO[C@@H](OC(=O)NCc2ccccc2)[C@H]2[C@@H]1CC[C@@H]2C` [I-183], the inhibition at 320 µM (stock) is 8.7% in test [1] and 25.4% in the test with HUFEC.

Consider `COC(=O)C1=CO[C@@H](OC(=O)NCc2ccc(Cl)cc2)[C@@H]2C(C)=CC[C@H]12` [I-109], for which the figures for the inhibition at 320 µM (stock) (in test [1]; in the test with HUFEC) were 7.2% and 21.5%, respectively.

On to `COC(=O)C1=CO[C@@H](OC(=O)NCc2ccc3c(c2)OCO3)[C@H]2[C@@H]1CC[C@@H]2C` [I-234], for which the inhibition at 320 µM (stock) (in test [1]; with HUFEC) was 7.3% each time.

Regarding `COC(=O)C1=CO[C@@H](OC(=O)NCc2ccc(Cl)cc2)[C@H]2[C@@H]1CC[C@@H]2C` [I-214], the inhibition at 320 µM (stock) in test [1] stood at 5.7%; in the test on HUFEC, 11.7%.

On to `COC(=O)C1=CO[C@@H](OC(=O)NCc2ccc(S(N)(=O)=O)cc2)[C@@H]2C(C)=CC[C@H]12` [I-133], for which the results for the inhibition at 320 µM (stock) (in test [1]; in the test on HUFEC) were 9.5% and 3.9%, respectively.

Consider `CNC(=O)O[C@@H]1OC=C(C(=O)OC)[C@H]2CC=C(C)[C@@H]12` [I-174], for which the inhibition at 320 µM (stock) in test [1] came to 67%; with HUFEC, 12.9%.

Consider `COC(=O)C1=CO[C@@H](OC(=O)Nc2c(F)cccc2F)[C@H]2[C@@H]1CC[C@@H]2C` [I-276], for which the inhibition at 320 µM (stock) turned out to be 8.2% in test [1] and 5.7% in the test with HUFEC.

On to `COC(=O)C1=COC[C@H]2[C@@H]1C[C@@H]1O[C@@]12CO` [I-289], for which the inhibition at 320 µM (stock) was 17.1% in test [1] and 9.4% in the test on HUFEC.

Turning to `COC(=O)C1=CO[C@@H](OC(=O)Nc2ccccc2F)[C@H]2[C@@H]1CC[C@@H]2C` [I-257], the inhibition at 320 µM (stock) in test [1] was found to be 3.5%; in the test on HUFEC, 8%.

With `COC(=O)C1=CO[C@@H](OC(=O)NC(=O)c2ccccc2)[C@@H]2C(C)=CC[C@H]12` [I-153], the inhibition at 320 µM (stock) in test [1] was 19%; in the test on HUFEC, 22.3%.

Take `COC(=O)C1=CO[C@@H](OC(=O)NCc2nc3ccccc3[nH]2)[C@H]2[C@@H]1CC[C@@H]2C` [I-252]: the inhibition at 320 µM (stock) in test [1] is 5.4%; in the test with HUFEC, 8.2%.

As for `COC(=O)C1=CO[C@@H](OC(=O)NCc2ccc(F)cc2)[C@H]2[C@@H]1CC[C@@H]2C` [I-213], the inhibition at 320 µM (stock) was 6.2% in test [1] and 21.5% with HUFEC.

`COC(=O)C1=CO[C@@H](OC(=O)NCc2ccccc2)[C@@H]2C(C)=CC[C@H]12` [I-80]: the inhibition at 320 µM (stock) was determined as 8.1% in test [1] and 5.9% in the test on HUFEC.

In the case of `COC(=O)C1=CO[C@@H](OC(=O)Nc2cccc(C#N)c2)[C@H]2[C@@H]1CC[C@@H]2C` [I-267], the inhibition at 320 µM (stock) in test [1] was determined as 5.8%; with HUFEC, 14.9%.

Consider `COC(=O)C1=CO[C@@H](OC(=O)NC(C)C)[C@@H]2C(C)=CC[C@H]12` [I-155], for which the inhibition at 320 µM (stock) in test [1] was 45.7%; with HUFEC, 19.9%.

On to `COC(=O)C1=CO[C@@H](OC(=O)NC(=O)c2ccccc2)[C@H]2[C@@H]1CC[C@@H]2C` [I-272], for which the inhibition at 320 µM (stock) in test [1] was determined as 7.9%; in the test on HUFEC it was 5.7%.

As to `COC(=O)C1=CO[C@@H](OC(=O)N2CCN(c3cccc(C(F)(F)F)c3)CC2)[C@H]2[C@@H]1CC[C@@H]2C` [I-235], the inhibition at 320 µM (stock) in test [1] was determined as 9.3%; with HUFEC, 6.5%.

`COC(=O)C1=CO[C@@H](OC(=O)NCC2CCCCC2)[C@@H]2C(C)=CC[C@H]12` [I-88]: the inhibition at 320 µM (stock) in test [1] turned out to be 4.7%; with HUFEC, 16.5%.

As for `COC(=O)C1=CO[C@@H](OC(=O)N2CCN(c3ccccc3F)CC2)[C@H]2[C@@H]1CC[C@@H]2C` [I-251], the values for the inhibition at 320 µM (stock) (in test [1]; in the test with HUFEC) were 7.9% and 8.7%, respectively.

For `CCOC(=O)CCCNC(=O)O[C@@H]1OC=C(C(=O)OC)[C@H]2CC[C@H](C)[C@@H]12` [I-237], the inhibition at 320 µM (stock) in test [1] amounted to 7.8%; in the test with HUFEC it was 6.9%.

`COC(=O)C1=CO[C@@H](OC(=O)NCCN2CCCCC2)[C@@H]2C(C)=CC[C@H]12` [I-118]: the inhibition at 320 µM (stock) in test [1] is 5.1%; with HUFEC it was 31.3%.

On to `COC(=O)C1=CO[C@@H](OC(=O)Nc2ccccc2F)[C@@H]2C(C)=CC[C@H]12` [I-158], for which the inhibition at 320 µM (stock) was 8.5% in test [1] and 7.3% in the test with HUFEC.

`COC(=O)C1=COC[C@@H]2C(C)=CC[C@H]12` [I-302]: the inhibition at 320 µM (stock) was 12.5% in test [1] and 26.6% in the test on HUFEC.

`COC(=O)C1=CO[C@@H](OC(=O)NCCCN2CCOCC2)[C@@H]2C(C)=CC[C@H]12` [I-124]: the values for the inhibition at 320 µM (stock) (in test [1]; with HUFEC) were 2.6% and 5.7%, respectively.

Regarding `CCC(CC)NC(=O)O[C@@H]1OC=C(C(=O)OC)[C@H]2CC[C@H](C)[C@@H]12` [I-207], the values for the inhibition at 320 µM (stock) (in test [1]; in the test with HUFEC) were 4.4% and 5.5%, respectively.
